The values that follow come from patent publication US4576962A, “Prostaglandin analogues” (priority 1984, dated 1986).

As usually defined, the ED50 is the dose at which the effect has come halfway, by size or by number of responders. Broadly, the EC50 is the concentration that produces a half-maximal response. A low value points to higher potency in that assay.

Series [1] has as its system gastric ulceration. As to the kind of experiment: gastric ulceration in arthritis patients receiving aspirin, tablets four times daily. In kind it is in vivo. The following applies: tablets orally four times daily; patients with arthritis on 1000 mg aspirin daily.
Series [2] concerns small intestine. As to the kind of experiment: enteropooling assay (diarrheogenic effect, Robert). In kind it is in vivo. The text has this: (§1) One of the most important side-effects of prostaglandins and prostaglandin analogues is their diarrheogenic effect. An assay was developed by Robert to test the diarrheogenic properties of prostaglandins and prostaglandin analogues. The test quantitatively determines the amount of "enteropooling", i.e. the accumulation of fluid into the small intestine.

Series [3] in a line: enteropooling assay (diarrheogenic effect, Robert). The following applies: in vivo; for selectivity ratio: enteropooling dose relative to ED50 cytoprotection, defined in drawing 10, read-out: TI (therapeutic index). It counts as in vivo.
From the text: as §1

For series [4] the following is noted: metabolism / intragastric dehydrogenation at C15; cited from earlier work.
The test system of series [5] is stomach mucosa. As to the kind of experiment: cytoprotective activity in rats (absolute ethanol induced stomach mucosa lesions). In kind it is in vivo, Sprague-Dawley rats. The following applies: for ED50 / Cytoprotection %: rat, oral; for ED50: read-out: ED50 Cytoprotection. The protocol: A number of the 13,14-didehydro-15-oxo-prostaglandin analogues have been tested for cytoprotective activity in rats. In this test, Sprague-Dawley rats were fasted for 24 hours prior to the pretreatment. […] The control animals were given 2.5 ml of the vehicle, without prostaglandin analogue. A half hour later after the pretreatment, absolute ethanol was administered orally to the animals, in a dose of 10 mL per kg body weight. One hour later the animals were sacrificed, their stomachs dissected out, opened along the greater curvature and the mucosa examined for lesions. The average lesion length is expressed as percentage of the average lesion length found in the stomach mucosa of control animals.
Importantly, this test measures the active cytoprotective properties of the prostaglandin analogues, independent of the gastric secretion inhibition that these compounds may or may not show. The test is discussed more fully by Robert et al., Gastroenterology 77 (1979) 433, incorporated herein by reference.

The test system of series [6] is gastric ulceration. Put plainly: gastric ulceration in patients, capsules administered twice daily. It counts as in vivo. To be noted: patient ca. 70 kg.
The conditions of series [7]: background art; cited from earlier work.
Series [8] deals with PGDH. The following applies: Gandolfi et al.; cited from earlier work.
For series [9] the following is noted: rat model; compared to natural prostaglandin PGE2; cited from earlier work.
Series [10] relates to rat fundic strip. As to the kind of experiment: smooth muscle contraction, rat fundic strip assay. Here is the method: The smooth muscle contraction potency of compound 1 was tested in the rat fundic strip assay, described by W. L. M. Perry in "Pharmacological Experiments on Isolated Preparations," 2nd ed. (1970), pp. 88-89, Churchill L. Livingstone, publisher.
For series [11], the system named is pregnant quinea pigs. Put plainly: abortificative effect in pregnant guinea pigs. It counts as in vivo. The following applies: 25 mg/kg oral, days 43 and 44 of gestation, 6 animals. The protocol: Another important side effect of natural prostaglandins and prostaglandin analogues is their abortificative effect. Compound 1 was tested for this effect as follows.

The mark [12] stands for this setting: dose 0.5 mg/kg, negative = lesions worse than control.

Structures are written as SMILES.

`CCCCCC(=O)C#C[C@@H]1[C@@H](C/C=C\CCCC(=O)O)[C@@H](O)C[C@H]1O` [13,14-didehydro-15-oxo-PGF2α]: the “reduction of incidence of gastric ulceration” value in series [1] is “effectively reduces the incidence of gastric ulceration”.
With `CCCCC[C@H](O)/C=C/[C@H]1[C@H](O)CC(=O)[C@@H]1C/C=C\CCCC(=O)O` [PGE2], the “Enteropooling Dose (ED50 for enteropooling)” value in series [2] (in vivo) came out at 0.750 mg/kg. Further, the selectivity ratio in series [3] came to 30. For the same compound, in [4], the “stability” value was “readily metabolized”. Further, the ED50 in series [5] is 0.025 mg/kg.
`CCCCCC(=O)/C=C/[C@H]1CCC(=O)[C@@H]1CCCCCCC(=O)OC` (relative stereo) [PGE1 trans oxo (a) (d)]: the values for the Cytoprotection % in series [5] (setting [12]) and in series [5] (dose 3 mg/kg) were -22% and 52%, respectively.
In the case of `CCCCCC(=O)C#C[C@H]1[C@H](O)CC(=O)[C@@H]1CCCCCCC(=O)O` [13,14-didehydro-15-oxo PGE1], the “reduction of gastric ulceration” value in [6] is reported as “substantially reduce gastric ulceration”.
`CCCCC[C@H](O)/C=C/[C@@H]1[C@@H](C/C=C\CCCC(=O)OC)[C@@H](O)C[C@H]1O` [PGF2α trans OH (a)]: the Cytoprotection % in [5] (dose 0.001 mg/kg) is -19%; in series [5] (dose 0.01 mg/kg) it was 1.7%; in series [5] (dose 0.1 mg/kg), -17%; in series [5] (setting [12]), 82%.
Turning to `CCCC[C@@H](C)[C@H](O)C#C[C@H]1[C@H](O)CC(=O)[C@@H]1C/C=C\CCCC(=O)O` [16(R),16-methyl-13-dehydro PGE2], in series [7], the “gastric anti-ulcer properties / activity” value is given as “potent gastric anti-ulcer properties”. Further, in series [8], the “substrate for the enzyme PGDH” value is “not substrates for the enzyme PGDH”.
With `CCCCC[C@@](C)(O)/C=C/[C@H]1[C@H](O)CC(=O)[C@@H]1C/C=C\CCCC(=O)O` [15(R)-15-methyl PGE2], in series [3], the TD50 came to 0.005 mg/kg and the selectivity ratio was 25 to 100. In addition, in [4], the “stability” value is reported as “better stability”. Also, the “ED50 for cytoprotection” value in [9] was “lower value of the ED50”.
For the compound `CCCC[C@H](C)[C@H](O)C#C[C@H]1[C@H](O)CC(=O)[C@@H]1C/C=C\CCCC(=O)O` [16(S),16-methyl-13-dehydro PGE2], the “gastric anti-ulcer properties / activity” value in series [7] is listed as “potent gastric anti-ulcer properties”. The “substrate for the enzyme PGDH” value in series [8] was “not substrates for the enzyme PGDH”.
For the compound `CCCCC(C)(C)[C@H](O)/C=C/[C@H]1[C@H](O)CC(=O)[C@@H]1C/C=C\CCCC(=O)O` [16,16-dimethyl PGE2], in series [3], the TD50 came to 0.0005 mg/kg and the selectivity ratio was determined as 10. In series [9], the “ED50 for cytoprotection” value is listed as “lower value of the ED50”.
With `CCCCCC(=O)C#C[C@H]1CCC(=O)[C@@H]1CCCCCCC(=O)OC` (relative stereo) [PGE1 triple oxo (a) (d)], the Cytoprotection % in [5] (setting [12]) came to 39%; in series [5] (dose 1 mg/kg), 81%; in series [5] (dose 3 mg/kg), 78%; in series [5] (dose 5 mg/kg) it was 96%.
In the case of `CCCCCC(=O)C#C[C@H]1CCC(=O)[C@@H]1CCCCCCC(=O)O` (relative stereo) [Compound 1, 11-Deoxy-13,14-didehydro-15-oxo PGE1], the “diarrheogenic effect” value in series [2] (compared to PGE2 and PGE2 analogues) was “very low diarrheogenic effect”. Moreover, the “therapeutic index” value in [2] (compared with the other compounds of table 2) is listed as “significantly higher”. In addition, in [3], the TD50 worked out at 25 mg/kg and the selectivity ratio is 250. In series [10] (compound 1 EC50 higher than that of PGE2), the “EC50 for smooth muscle contraction relative to PGE2” value is on record as “three orders of magnitude higher”. In series [10] (compound 1 EC50 higher than that of PGF2α and PGE1), the “EC50 for smooth muscle contraction relative to PGF2α and PGE1” value is reported as “two orders of magnitude higher”. Also, in [10] (rat fundic strip), it took 5 µM to reach a half-maximal effect (EC50). Further, the abortion induced result in [11] is listed as “in none of the animals did the dose of compound 1 induce abortion”. For the same compound, the ED50 in [5] is 0.1 mg/kg.
`CCCCC[C@](C)(O)/C=C/[C@H]1[C@H](O)CC(=O)[C@@H]1C/C=C\CCCC(=O)O` [15(S),15-methyl PGE2]: the “stability” value in series [4] was “more stable than PGE2 itself”.
As for `CCCCCC(=O)C#C[C@@H]1[C@@H](C/C=C\CCCC(=O)OC)[C@@H](O)C[C@H]1O` [PGF2α triple oxo (a), 13,14-didehydro-15-keto PGF2α methyl ester], in [5] (compared with PGF2α itself (tests nos. 7-10)), the “cytoprotective potency” value is reported as “much more potent cytoprotective agent”. For the same compound, the Cytoprotection % in series [5] (dose 0.001 mg/kg) was determined as 6%; in series [5] (dose 0.01 mg/kg), 23%; in [5] (dose 0.1 mg/kg), 50%; in [5] (setting [12]), 98%.
